10 compounds from PubChem BioAssay (NCI) can be followed below.

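48-hour exposure; five concentrations; linearly interpolated endpoints. GI50 is the concentration that inhibits growth by half. TGI: total growth inhibition.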

Holding throughout (assay): DTP human tumour cell line panel, 48 h
Test [1] concerns NCI-H522 lung.
Test [2] has as its system MOLT-4 leukemia.
The test system of test [3] is SF-295 CNS.
The test system of test [4] is UO-31 renal.
The test system of test [5] is HCT-116 colon.
Test [6] deals with SN12C renal.
Test [7] relates to LOX IMVI melanoma.
Test [8] has as its system A498 renal.
The test system of test [9] is HCT-15 colon.

Regarding `COc1cc2c(c(OC)c1OC)-c1ccc(N)c(=O)cc1[C@@H](NC(C)=O)CC2`, the GI50 (as a rule, the concentration that inhibits growth by half) in test [1] is < 0.0114 µM; in test [2], 0.0395 µM; in test [3], 0.0339 µM; in [4], 0.705 µM; in [5], 0.0168 µM; in test [6], 0.0546 µM. For the same compound, the GI50 in [7] was 0.0256 µM; in [8], 0.0297 µM; in test [9], 0.358 µM. Also, the TGI – broadly, the concentration giving total growth inhibition – in test [1] was < 0.021 µM; in test [2], > 100 µM; in [4], > 100 µM; in test [5] it was > 100 µM; in test [6], > 100 µM; in test [7], > 100 µM. The TGI in [9] is > 100 µM.
In the case of `CCCCCCCCCCCCCCN`, the TGI in test [1], in test [2], in test [3], in test [5], in test [6] and in test [7] was > 100 µM each time. In addition, the total growth inhibition concentration (TGI) in test [8] and in test [9] was > 100 µM each time.
In the case of `O=C1c2ccc([N+](=O)[O-])cc2-c2c1c1ccccc1c(=O)n2CCCNCCCNCCCn1c2c(c3ccc([N+](=O)[O-])cc3c1=O)C(=O)c1ccccc1-2`, the GI50 in test [1] is 7.1 µM; in test [2], 0.129 µM; in test [3], 2.23 µM; in test [4] it was 10.4 µM; in test [5], 0.933 µM; in [6] it was 0.355 µM. Also, the GI50 in [7] was 2.7 µM; in [8], 2.05 µM; in [9] it was 3.4 µM. The TGI was 32.3 µM in test [1]; 2.11 µM in test [2]; 20.7 µM in test [3]; 33.8 µM in test [4]; 2.91 µM in test [5]; 2.91 µM in test [6]. Further, the figures for the TGI in test [7], in test [8] and in [9] were 16 µM, 8.88 µM and 14.3 µM, respectively.
As to `O=C(/C=C/C12c3ccccc3C(c3ccccc31)C1C(=O)N(c3ccccc3)C(=O)C12)c1ccccc1` (stereo not drawn), the GI50 in [1] was 1.59 µM; in [2], 1.23 µM; in [5], 0.695 µM; in [6], 2.53 µM; in test [7], 1.66 µM; in test [8] it was 0.763 µM. In test [9], the GI50 was 1.6 µM. The TGI in [1] was 4.45 µM; in [2] it was > 100 µM; in [5], 2.07 µM; in [6] it was > 100 µM; in [7] it was 3.51 µM; in [8], 2.2 µM. This compound returned a TGI in [9] of 10.6 µM.
Take `O=C(c1ccc2ccccc2c1)c1c(C(F)(F)F)n([O-])c2cc(F)c(F)cc2[n+]1=O`: the GI50 in [2] was 0.749 µM; in test [3] it was 2.02 µM; in test [4], 1.02 µM; in test [5] it was 1.5 µM; in [8], 16 µM; in [9] it was 1.76 µM. In addition, the TGI in [2] was found to be 2.68 µM; in [3] it was 4.9 µM; in test [4], 2.68 µM; in test [5] it was 3.02 µM; in [8], 32.1 µM; in [9] it was 4.37 µM.
With `CN1CCN(c2ccc(NC(=O)c3nc4ccc5[nH]ncc5c4c4c3CCCC4)cc2C(F)(F)F)CC1`, the GI50 is 0.856 µM in test [1]; 1.09 µM in test [2]; 1.39 µM in test [3]; 0.843 µM in [4]; 0.814 µM in [5]; 0.895 µM in [6]. Moreover, the GI50 in test [7] is 0.836 µM; in test [8], > 50 µM; in test [9] it was 0.845 µM. The TGI in test [1] worked out at 1.88 µM; in test [2], 3.08 µM; in [3], 4.16 µM; in test [4], 1.65 µM; in [5], 1.5 µM; in [6] it was 1.65 µM. Besides, the values for the TGI in test [7], in [8] and in [9] were 1.55 µM, > 50 µM and 1.78 µM, respectively.
In the case of `COc1ccc2c(c1)C(=O)c1c-2n(CCCN=[N+]=[N-])c(=O)c2cc(N(C)C)ccc12`, the GI50 is 11.2 µM in [1]; > 100 µM in test [2]; > 100 µM in test [3]; > 100 µM in [4]; 77.3 µM in test [5]; > 100 µM in [6]. Also, the GI50 in [7], in test [8] and in test [9] was > 100 µM each time. The TGI is 92.4 µM in test [1]; > 100 µM in test [2]; > 100 µM in [3]; > 100 µM in test [4]; > 100 µM in test [5]; > 100 µM in [6]. The TGI in test [7], in test [8] and in test [9] was > 100 µM throughout.
For `O=C(/C(=C\C(=O)c1cccs1)c1ccsc1)c1ccc(Br)cc1`, the TGI in [2], in test [3], in [4], in [5], in [6] and in test [8] was > 100 µM in each case. Besides, the TGI in test [9] is > 100 µM.
For `CCOC(=O)C1=C(C(=O)c2ccc(C)cc2)C(c2cccc([N+](=O)[O-])c2)C(C(=O)c2ccc(C)cc2)=C(C(=O)OCC)N1`, the TGI in [1] is 36.2 µM; in test [2], > 100 µM; in test [3], 32.1 µM; in test [4], 29.5 µM; in [5], 19.6 µM; in test [6], 32.4 µM. Besides, the TGI in test [7] is 31.4 µM; in test [9], 6.13 µM.
Turning to `O=Nc1c(-c2c(O)[nH]c3ccc([N+](=O)[O-])cc23)[nH]c2ccc(O)cc12`, the GI50 in [1] is 0.38 µM; in test [2], 0.359 µM; in test [3], 0.62 µM; in [6] it was 0.366 µM; in test [7] it was 0.171 µM; in test [8] it was 0.218 µM. The GI50 in test [9] is 0.376 µM. Also, the TGI in [1] was 2.67 µM; in test [2] it was 4.21 µM; in test [3] it was > 100 µM; in test [6], > 100 µM; in test [7], 0.531 µM; in test [8], 1.24 µM. The TGI in [9] was > 100 µM.
